One assay has as its system GPNMB. Put plainly: GPNMB protein levels (TFEB target gene) upon chronic treatment, Western blot. In kind it is cell-based. The following applies: FNIP1/2 DKO cells reconstituted with FNIP1; FIG. 44D. From the text: For preparation of total cell lysates, cells were lysed in RIPA buffer (#9806, Cell Signaling Technology) supplemented with sodium dodecyl sulfate to 1% final concentration (SDS, Boston BioProducts) and protease inhibitor tablets (Complete EDTA-free, Roche). Lysates were homogenized by sequential passaging through Qiashredder columns (Qiagen), and protein levels were quantified by Lowry DC protein assay (Bio-Rad). Proteins were denatured in 6×Laemmli SDS loading buffer (Boston BioProducts) at 100° C. for 5 minutes. Equivalent amounts of total proteins were separated on Tris-Glycine TGx SDS-PAGE gels (Bio-Rad) for Western blotting. Proteins were transferred to nitrocellulose using standard methods and membranes were blocked in 5% non-fat dry milk (Cell Signaling Technology) in TBS with 0.2% Tween-20 (Boston BioProducts). Primary antibodies were diluted in 5% bovine serum albumin (BSA, Cell Signaling Technology) in TBS with 0.2% Tween-20 and were incubated with membranes at 4° C. overnight. HRP-conjugated secondary antibodies were diluted in blocking solution (1:20,000, ThermoFisher) and incubated with membranes at room temperature for 1 hour. Western blots were developed using West PicoPLUS Super Signal ECL reagents (Pierce) and film (GEHealthcare).
In general terms: A western blot detects proteins with antibodies after separation by electrophoresis.

The subject of assay [1] is TFEB. The experiment in a line: TFEB activation in ATG16L1 KO mouse macrophages reconstituted with ATG16L1 WD40 point mutants. In kind it is cell-based. To be noted: immortalized ATG16L1 KO mouse macrophages; FIG. 21. The protocol:
For endogenous TFEB staining in mouse macrophages, cells were fixed in 3.7% formaldehyde for 15 minutes at room temperature, washed in PBS and permeabilized in 0.2% triton/PBS for 5 minutes. Cells were then processed as above for primary (anti-TFEB, Bethyl Laboratories, #A303-673A, 1:200) and secondary antibodies. Images were acquired using a Confocal Zeiss LSM 780 microscope (Carl Zeiss Ltd) equipped with a 40×oil immersion 1.40 numerical aperture (NA) objective using Zen software (Carl Zeiss Ltd). Analysis was performed using Image J. For nuclear cytosol quantification, the ratio of fluorescent intensity of TFEB within the DAPI was mask versus the cytosol of 30 cells across 2 independent experiments were measured.

Assay [2] relates to LC3. Put plainly: LC3 lipidation (LC3-I to LC3-II conversion), Western blot and cell images. In kind it is cell-based. The following applies: for LC3 lipidation (conversion of LC3 "I" form to "II" form): wild type (WT) and autophagy-deficient cells, FIGS. 1, 2, 3. An excerpt:
(§1) For preparation of total cell lysates, cells were lysed in RIPA buffer (#9806, Cell Signaling Technology) supplemented with sodium dodecyl sulfate to 1% final concentration (SDS, Boston BioProducts) and protease inhibitor tablets (Complete EDTA-free, Roche). Lysates were homogenized by sequential passaging through Qiashredder columns (Qiagen), and protein levels were quantified by Lowry DC protein assay (Bio-Rad). Proteins were denatured in 6×Laemmli SDS loading buffer (Boston BioProducts) at 100° C. for 5 minutes.
(§2) Equivalent amounts of total proteins were separated on Tris-Glycine TGx SDS-PAGE gels (Bio-Rad) for Western blotting. Proteins were transferred to nitrocellulose using standard methods and membranes were blocked in 5% non-fat dry milk (Cell Signaling Technology) in TBS with 0.2% Tween-20 (Boston BioProducts). Primary antibodies were diluted in 5% bovine serum albumin (BSA, Cell Signaling Technology) in TBS with 0.2% Tween-20 and were incubated with membranes at 4° C. overnight. HRP-conjugated secondary antibodies were diluted in blocking solution (1:20,000, ThermoFisher) and incubated with membranes at room temperature for 1 hour. Western blots were developed using West PicoPLUS Super Signal ECL reagents (Pierce) and film (GEHealthcare).

In assay [3] the test system is TFEB. Put plainly: TFEB activation (Western blot / nuclear accumulation) in cell lines. To be noted: for TFEB activation under co-treatment with BafA1: FIG. 16. In kind it is cell-based.
Excerpt: as §1, §2
(§3) For high content image acquisition, cells were plated in 96-well glass bottom, black wall plates (Greiner, #655892) or 384-well polystyrene, black-wall plates (Greiner, #781091) and grown overnight to 70% confluency. Treatments were performed as indicated. Cells were fixed for 10 minutes in either −20° C. methanol or 4% paraformaldehyde (Electron Microscopy Sciences). Cells were blocked and permeabilized in a solution containing 1:1 Odyssey blocking buffer (LiCor)/PBS (Invitrogen) with 0.1% Triton X-100 (Sigma) and 1% normal goat serum (Invitrogen) for 1 hour at room temperature. Primary antibodies were added overnight at 4° C. in blocking buffer described above. After washing plates with PBS using an EL-406 plate washer (BioTek), secondary Alexa-conjugated antibodies (Life Technologies) were diluted 1:1,000 in blocking solution and applied for 1 hour at room temperature. Cells were then washed again in PBS as described and imaged using an INCELL 6500 high-content imager (GE Healthcare). Images were analyzed using the GE InCarta software.

Assay [4] concerns LC3. The experiment in a line: LC3 puncta co-localized with LAMP1 in primary bone marrow-derived macrophages, wild-type vs ATG16L1 K490A knock-in. The following applies: FIG. 12. In kind it is cell-based, mouse. How it is done: For LC3 and LAMP1 staining in primary BMDMs, cells were plated on 18 mm coverslips. The next day, cells were treated as indicated and cells were fixed in ice cold methanol as described above. Cells were then blocked in PBS+5% BSA for 1 hour before addition of primary antibodies (anti-LC3A/B, CST #4108, 1:100; anti-LAMP1, BD #555798, 1:100) and diluted in blocking buffer overnight at 4° C. Cells were then washed and incubated with fluorescent secondary antibodies in blocking buffer for 1 hour at room temperature. Cells were washed in PBS incubated with DAPI and mounted on glass slides using Prolong anti-fade reagent (Life Technologies).
The K490A point mutation was introduced into C57/BL6 mice via direct zygote injection of CRISPR/Cas9 reagents. Briefly, a single stranded guide sequence was designed and synthesized along with a tracrRNA from Dhamacon. A repair donor single stranded DNA sequence was designed to introduce the K490A point mutation and mutate the PAM sequence to stop re-targeting of the Cas9 complex to already edited DNA. These reagents, along with recombinant Cas9, were injected into mouse zygotes. Pups born from these injections were genotyped via Transnetyx and heterozogous founders were bred with wild-type mice to obtain pure heterozygote animals. Further breeding yielded mice homozygous for the K490A mutation. […]

For the next assay, the system named is TFE3 and FLCN. Put plainly: TFE3 and FLCN subcellular localization upon dimerizer-induced mitophagy in U2OS cells. In kind it is cell-based. To be noted: 25 nM, 3 hours; control KO, RB1CC1 KO, GABARAP triple KO U2OS cells; FIG. 50. The protocol: as §3
Assay [5] concerns U2OS cells expressing mKeima, FRB-p62, and FKBP-FIS1. The experiment in a line: Mitophagy efficiency, Keima fluorescence shift assay in U2OS cells. In kind it is cell-based. To be noted: dimerizer-induced mitophagy; FIG. 49.

`COc1ccc(-c2ccc3c(N4CCOC[C@@H]4C)nc(N4CCOC[C@@H]4C)nc3n2)cc1CO` [AZD8055]: in the assay with GPNMB, the GPNMB protein levels entry is given as “largely suppressed”. Also, the “TFEB activation in macrophages with ATG16L1-F467A or ATG16L1-K490A” value in the assay with TFEB [1] is “activated TFEB irrespective of ATG16L1 status”. The “LC3 lipidation: dependence on VPS34 inhibition and Bafilomycin A1 co-treatment” value with LC3 [2] (FIG. 4) is “induced conversion of LC3 in a manner sensitive to VPS34 inhibition and was potentiated with the vATPase inhibitor Bafilomycin A1 (BafA1)”. Further, the “LC3 lipidation (conversion of LC3 "I" form to "II" form)” value in the assay on LC3 [2] is reported as “able to regulate LC3 lipidation in WT but not autophagy-deficient cells”. Besides, the “TFEB activation (with GPNMB readout)” value in the assay with TFEB [3] (FIG. 44D) is recorded as “robust TFEB activation”. Besides, the “TFEB nuclear accumulation / activation with SopF expression” value in the assay on TFEB [3] (SopF expression vs SopF negative controls, FIG. 15) was “did not impact TFEB activation”. In addition, the “TFEB activation under co-treatment with BafA1” value in the assay with TFEB [3] was “did not prevent TFEB activation”. Also, the “LC3 puncta formation co-localized with LAMP1, wild-type vs ATG16L1^K490A cells” value with LC3 [4] is “sensitivity to the ATG16L1^K490A mutation was not observed”.

`CO[C@H]1[C@@H](O)[C@H](C)C[C@H](C)/C=C/C=C/C=C(\C)[C@@H](c2c[nH]c3c(C)cccc23)C[C@@H]2CC[C@@H](C)[C@@](O)(O2)C(=O)C(=O)N2CCCC[C@H]2C(=O)O[C@H]([C@H](C)C[C@@H]2CC[C@@H](O)[C@H](OC)C2)C[C@H](O)[C@H](C)/C=C(\C)[C@H]1O` [AP21967]: the “TFE3 nuclear localization and FLCN punctate structures” value with TFE3 and FLCN was “seen in CTRL and RBICC1_KO (autophagy-deficient) cells but not in GABARAP_TKO cells”.

As to `CC1CC(C)(C)N(C(=O)CN2C(=O)c3ccccc3C2=O)c2ccccc21` (stereo not drawn) [ML-SA1], the “TFEB activation in macrophages with ATG16L1-F467A or ATG16L1-K490A” value with TFEB [1] is given as “did not exhibit TFEB activation”. Further, in the assay with LC3 [2], the “LC3 lipidation (conversion of LC3 "I" form to "II" form)” value is “rapid conversion of LC3 from its cytoplasmic “I” form to the lipidated, punctate “II” form in both wild type (WT) and autophagy-deficient cells”. In addition, the “LC3 puncta formation co-localized with LAMP1, wild-type vs ATG16L1^K490A cells” value with LC3 [4] is “did not occur in ATG16L1^K490A cells”.

For `Cc1ccc(S(=O)(=O)Nc2ccccc2N2CCCCC2)s1` [MK6-83], the “LC3 lipidation (conversion of LC3 "I" form to "II" form)” value with LC3 [2] is “rapid conversion of LC3 from its cytoplasmic “I” form to the lipidated, punctate “II” form in both wild type (WT) and autophagy-deficient cells”. For the same compound, the “TFEB activation under co-treatment with BafA1” value in the assay with TFEB [3] is on record as “prevented”.

As to `CO/C1=C\C(C)=C\[C@@H](C)[C@@H](O)[C@@H](C)C/C(C)=C/C=C/[C@H](OC)[C@@H]([C@@H](C)[C@@H](O)[C@H](C)[C@@]2(O)C[C@@H](O)[C@H](C)[C@@H](C(C)C)O2)OC1=O` [BafA1, Bafilomycin A1], the “Keima signal (mitophagy) under co-treatment” value in assay [5] was “blocked the Keima signal”.

The record behind these values is US20230272392A1, “METHODS OF TFEB ACTIVATION AND LYSOSOMAL BIOGENESIS AND COMPOSITIONS THEREFOR” (Casma Therapeutics, Inc., priority 2020, published 2023).
